Consider 8 compounds from patent EP0738149B1 (priority 1994, dated 1995).

Read-outs that look alike come from different tables or passages of the source.

Series [1] deals with rats. The settings on record: Rattus norvegicus, po, read-out: RATS scMet ED50.
Series [2] in a line: Neurotoxicity in rats (positional sense test and gait stance test), p.o. The note with it: rat, in vivo, po. The protocol: (§1) Neurotoxicity of the claimed agents was also assessed in mice (i.p. administration) by the rotorod ataxia test and/or in rats (p.o. administration) by positional sense test and gait stance test. […] The term quantitating the neurotoxicity is the medial neurological toxic dose (TD50), was determined in the above tests.

The test system of series [3] is rats. Described as above. The settings on record: rats, p.o.; Table 16. As to the method: as §1
The test system of series [4] is rats. Nature of the series: Maximal electroshock (MES) model in rats, p.o.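 Further: rat MES model gauging antiepileptic efficacy versus generalized and partial seizures after oral dosing.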 The note with it: Rattus norvegicus, po, Table 15. It is filed as in vivo.
Series [5] relates to mice. The note with it: Mus musculus, ip.
The subject of series [6] is mice. Nature of the series: Maximal electroshock (MES) model in mice, i.p.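 On all read-outs here: Electroshock-induced convulsion model serving to demonstrate antiepileptic efficacy against generalized and partial seizures.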 The note with it: for ED50: Mus musculus, ip, Table 15. It is filed as in vivo.
The nature of the next series: in vivo. The note with it: mouse, in vivo, ip, MICE TD50. As to the method:
as §1

Series [7] deals with mice. Nature of the series: in vivo. The note with it: mouse, in vivo, ip. As to the method:
as §1

In the next series the test system is Male mongolian gerbils. Nature of the series: Global brain ischemia in gerbils (CA1 pyramidal neurons). It is filed as in vivo. The settings on record: 3 injections, fraction of hippocampi protected from ischemia, 14 days post-ischemia. The protocol: Each artery was clamped for 5 minutes with aneurysm clips to produce global brain ischemia. The anesthesia was discontinued upon clamping. After 5 minutes the clamps were removed and the wound closed with skin clips.
For treatment, the test compound or vehicle were injected intra-peritoneally (ip) in a volume of 50 microliters of solvent per 10g body weight. The first injection was given two minutes after clamp removal, and thereafter daily for the next 2 post-operative days (total of 3 injections).
Seven groups each of 4-8 animals were compared: • I. Control; (sham- or unoperated and saline treated), • II. Vehicle treated, unoperated (when solvent is other than saline), • III. Ischemia - untreated or saline treated), • IV. Ischemia - vehicle treated (when solvent is other than saline), • V. Ischemia - Test compound treated, one sub-group per concentration tested, • VI. Ischemia and pentobarbital (40 mg/kg) as positive control).
Analysis of neuronal damage was performed 14 days post-ischemia by counting pyramidal neurons throughout the CA1 layer of the anterior hippocampus in […] thick (paraffin) coronal brain sections stained with hematoxylin and erosin.
Percent Protection values represent the fraction of hippocampi protected from ischemia in a group of animals treated with the stated dose of compound.

The next series relates to male ICR albino mice. Nature of the series: Hypobaric hypoxia survival time in mice. It is filed as in vivo. The protocol:
Dessicator B was disconnected and allowed to equilibrate with room air whilst dessicator A was evacuated to a pressure of 100mmHg. […] The survival time from the moment of induction of hypoxia to the time of cessation of respiration was recorded for each mouse for a maximum of 15 minutes after which time room air was reintroduced to dessicator B. Survivors were monitored for signs of lethargy or vitality.
Effect of drug treatment was assessed as the percent of the survival time of the drug treated group with respect to the saline injected or vehicle injected control group. Control groups were run twice, before and after each experimental group and consisted of 12-16 mice in groups of 4 mice. Each experimental group always consisted of 4 mice to ensure a constant residual volume of oxygen in all tests. The effect of each dose of test drug was determined in duplicate i.e. two groups of 4 mice.
All drugs were administered intra-peritoneally at the dose indicated one hour prior to exposure to hypoxia.

The subject of series [8] is mechanically dissociated neonatal rat cerebellum. Nature of the series: Reversal of NMDA induced cell death in cultures of neonatal rat cerebellum. The note with it: for SURVIVING CELL IN CULTURE: relative to control (100%); for PERCENT PROTECTION: Cell Survival minus the NMDA effect; for EFFECTIVE PROTECTION: X x 100/70. It is filed as cell-based. As to the method: The cerebellum was aseptically dissociated from 6 or 7-day old rat pups and placed in a 15ml sterile plastic conical tube containing 3ml of Dulbecco's modified Eagle's medium (DMEM) with a high glucose concentration ([…]) and 2mM (v/v) L-glutamine and an antibiotic antimitotic mixture. The cerebella were then dissociated after 20-25 passages through a sterile 13 gauge, 10cm long stainless steel needle attached to a 5ml syringe with an inserted 45 micrometer pore nylon sieve. The dissociated cells were centrifuged at 200g for 5 minutes. The supernatant was discarded and the cells resuspended in medium enriched with 15% (v/v) heat inactivated fetal calf serum. Cell viability was determined by the tryptan blue exclusion test.
Cells were plated at a density of 200/mm^2 on poly-L-lysine coated surfaces. Poly-L-lysine coated glass coverslips were prepared at least one hour in advance of plating by immersing sterile coverslips in sterile distilled water solution containing 15 microgram/ml poly-L-lysine, and washing in sterile water just prior to use. The plated cells were covered with enriched medium and incubated at 37°C in an atmosphere of 5% CO2 in air and 97% humidity. After three days in culture, the media was replaced with media containing the desired test compound. Each test compound was tested in duplicate. Toxic-dose response was determined for each compound.
Four groups were run in each set of experiments; • I. Control, consisting of enriched media alone, • II. N-methyl-D-aspartate (NMDA, 1mM for 3 hours) as the cytotoxic challenge, • III. Test compound plus NMDA, and • IV. Positive control, spermine(0.01 micromoles) plus NMDA.
Nerve cell survival was evaluated by phase contrast microscopy and tryptan blue staining after 24 hours.
Surviving cells in culture are measured relative to control (100%), as described above. Percent protection is the Cell Survival for the test compound minus the NMDA effect. Thus, maximal protection is 100% minus 30% NMDA effect i.e. […]. The Effective Protection was calculated as the percent of the Percent Protection (X) divided by the maximal protection value (e.g. X x 100/70).

[9] abbreviates: rats, p.o., read-out: RATS MES 50.
Where [10] appears, read: read-out: MICE scMet ED50, mice, i.p., Table 16.

On to `O=CNC1CCc2ccccc21` (racemic) [Example 8, (rac)-N-Formyl-1-aminoindan], for which the ED50 in the series on rats [1] was more than 250 mg/kg; in the series on rats [4] (setting [9]), 24 mg/kg. Also, the TD50 in series [2] is more than 500 mg/kg. In the series with rats [3], the “RATS TD50” value is reported as more than 500 mg/kg.
`COc1ccc2c(c1OC)CC[C@H]2NC(C)=O` [Example 21, (R)-4,5-Dimethoxy-N-acetyl-1-aminoindan]: the ED50 in the series on rats [1] was more than 250 mg/kg; in the series on mice [5] (setting [10]) it was 150 mg/kg; with mice [6], 40 mg/kg; in the series with rats [4] (setting [9]), 21 mg/kg. Further, the TD50 is more than 500 mg/kg in series [2] and 137 mg/kg in “in vivo”. Moreover, the “RATS TD50” value in the series on rats [3] was more than 500 mg/kg. In addition, the “MICE TD50” value against mice [7] came to 137 mg/kg.
For the compound `C#CCN[C@H]1CCc2ccccc21.Cl` [G, (S)-N-propargyl-1-aminoindan HCl salt], the ED50 was more than 250 mg/kg in the series with rats [1]; more than 250 mg/kg with mice [5] (read-out: MICE scMet ED50); 57 mg/kg with mice [6]; 57 mg/kg in the series on rats [4] (read-out: RATS MES 50, rats, p.o.).
For `N[C@@H]1CCc2ccc(F)cc21` [J, (R)-6-fluoro-1-aminoindan], the values for the ED50 in the series with rats [1], in the series on mice [6] and with rats [4] (setting [9]) were more than 100 mg/kg, 65 mg/kg and less than 50 mg/kg, respectively. The “PERCENT PROTECTION” value was 27.5% in the series with Male mongolian gerbils (0.1 mg/kg ip); 25.0% in the series with Male mongolian gerbils (1.0 mg/kg ip); 25.0% in the series on Male mongolian gerbils (10.0 mg/kg ip); 78% in series [8] (0.005 µM + NMDA); 49% in [8] (0.010 µM + NMDA); 32% in series [8] (0.100 µM + NMDA). Besides, the figures for the “PERCENT PROTECTION” value in series [8] (1.000 µM + NMDA) and in series [8] (5.000 µM + NMDA) were 23% and 30%, respectively. For the same compound, the results for the “PROTECTION % OF RESPECTIVE CONTROL” value in the series with male ICR albino mice (50 mg/kg ip one hour prior to hypoxia) and in the series with male ICR albino mice (100 mg/kg ip one hour prior to hypoxia) were 305±185 % OF RESPECTIVE CONTROL and 241±56 % OF RESPECTIVE CONTROL, respectively. In addition, the TD50 is more than 50 mg/kg in [2] and 78 mg/kg in the series “in vivo”. The “RATS TD50” value with rats [3] is reported as more than 50 mg/kg. For the same compound, the “SURVIVING CELL IN CULTURE” value in series [8] (0.005 µM + NMDA 1mM for 3 hours) was 108%; in [8] (0.010 µM + NMDA 1mM for 3 hours), 79%; in series [8] (0.100 µM + NMDA 1mM for 3 hours), 62%; in [8] (1.000 µM + NMDA 1mM for 3 hours) it was 53%; in series [8] (5.000 µM + NMDA 1mM for 3 hours), 60%. Further, the “EFFECTIVE PROTECTION” value is recorded as 111% in series [8] (0.005 µM + NMDA); 70% in series [8] (0.010 µM + NMDA); 46% in [8] (0.100 µM + NMDA); 33% in series [8] (1.000 µM + NMDA); 43% in series [8] (5.000 µM + NMDA). In the series with mice [7], the “MICE TD50” value is on record as 78 mg/kg.
For `CC(=O)N[C@@H]1CCc2ccc(F)cc21` [Example 23, (R)-6-Fluoro-N-acetyl-1-aminoindan], the ED50 was more than 250 mg/kg in the series with rats [1], 155 mg/kg in the series on mice [5] (setting [10]), 65 mg/kg in the series with mice [6] and 25 mg/kg in the series on rats [4] (setting [9]). Further, the results for the TD50 (in series [2]; in the series “in vivo”) were more than 500 mg/kg and 155 mg/kg, respectively. Further, in the series on rats [3], the “RATS TD50” value is on record as more than 500 mg/kg. Further, in the series with mice [7], the “MICE TD50” value was found to be 155 mg/kg.
Take `NC1CCc2ccc(F)cc21` (stereo not shown) [I, 6-fluoro-1-aminoindan]: the ED50 in the series on rats [1] is more than 100 mg/kg; in the series with mice [6] it was 66 mg/kg; in the series on rats [4] (setting [9]) it was less than 50 mg/kg. Moreover, the TD50 is more than 50 mg/kg in series [2] and 58 mg/kg in “in vivo”. Moreover, in the series on rats [3], the “RATS TD50” value is recorded as more than 50 mg/kg. Further, the “MICE TD50” value with mice [7] amounted to 58 mg/kg.
With `COc1ccc2c(c1)C(NC(C)=O)CC2` (racemic) [Example 26, (rac) 6-methoxy-N-acetyl-1-aminoindan], the ED50 in the series on rats [1] is more than 250 mg/kg; in the series on rats [4] (setting [9]), 40 mg/kg. The compound also yielded a TD50 in series [2] of more than 500 mg/kg. Besides, the “RATS TD50” value with rats [3] is on record as more than 500 mg/kg.
`C#CCNC1CCc2ccc(F)cc21` (stereo not shown) [L, 6-fluoro-N-propargyl-1-aminoindan]: the ED50 in the series on rats [1] was more than 300 mg/kg; with mice [6] it was 74 mg/kg; with rats [4] (setting [9]), 50 mg/kg. In addition, the results for the TD50 (in series [2]; in the series “in vivo”) were more than 50 mg/kg and 188 mg/kg, respectively. The “RATS TD50” value in the series on rats [3] is listed as more than 50 mg/kg. Also, the “activity in the MES model in mice” value in the series with mice [6] (statement in words) is on record as “showed activity”. Besides, the “MICE TD50” value in the series on mice [7] is 188 mg/kg.
